Measurements: ChEMBL document CHEMBL5316339, “Discovery of a Series of Substituted 1H-((1,2,3-Triazol-4-yl)methoxy)pyrimidines as Brain Penetrants and Potent GluN2B-Selective Negative Allosteric Modulators” (J Med Chem, 2023)

Columns and labels:
[1] = biological target: Glutamate receptor ionotropic, NMDA 2A (Homo sapiens, UniProt Q05586+Q12879); assay: Inhibition of human GluN2A receptor by FLIPR assay
[2] = biological target: Glutamate receptor ionotropic, NMDA 2C (Homo sapiens, UniProt Q05586+Q14957); assay: Inhibition of human GluN2C receptor by FLIPR assay
[3] = biological target: Glutamate receptor ionotropic, NMDA 2D (Homo sapiens, UniProt O15399+Q05586); assay: Inhibition of human GluN2D receptor by FLIPR assay
Sequence of Glutamate receptor ionotropic, NMDA 2D (O15399 whole entry, one chain of several): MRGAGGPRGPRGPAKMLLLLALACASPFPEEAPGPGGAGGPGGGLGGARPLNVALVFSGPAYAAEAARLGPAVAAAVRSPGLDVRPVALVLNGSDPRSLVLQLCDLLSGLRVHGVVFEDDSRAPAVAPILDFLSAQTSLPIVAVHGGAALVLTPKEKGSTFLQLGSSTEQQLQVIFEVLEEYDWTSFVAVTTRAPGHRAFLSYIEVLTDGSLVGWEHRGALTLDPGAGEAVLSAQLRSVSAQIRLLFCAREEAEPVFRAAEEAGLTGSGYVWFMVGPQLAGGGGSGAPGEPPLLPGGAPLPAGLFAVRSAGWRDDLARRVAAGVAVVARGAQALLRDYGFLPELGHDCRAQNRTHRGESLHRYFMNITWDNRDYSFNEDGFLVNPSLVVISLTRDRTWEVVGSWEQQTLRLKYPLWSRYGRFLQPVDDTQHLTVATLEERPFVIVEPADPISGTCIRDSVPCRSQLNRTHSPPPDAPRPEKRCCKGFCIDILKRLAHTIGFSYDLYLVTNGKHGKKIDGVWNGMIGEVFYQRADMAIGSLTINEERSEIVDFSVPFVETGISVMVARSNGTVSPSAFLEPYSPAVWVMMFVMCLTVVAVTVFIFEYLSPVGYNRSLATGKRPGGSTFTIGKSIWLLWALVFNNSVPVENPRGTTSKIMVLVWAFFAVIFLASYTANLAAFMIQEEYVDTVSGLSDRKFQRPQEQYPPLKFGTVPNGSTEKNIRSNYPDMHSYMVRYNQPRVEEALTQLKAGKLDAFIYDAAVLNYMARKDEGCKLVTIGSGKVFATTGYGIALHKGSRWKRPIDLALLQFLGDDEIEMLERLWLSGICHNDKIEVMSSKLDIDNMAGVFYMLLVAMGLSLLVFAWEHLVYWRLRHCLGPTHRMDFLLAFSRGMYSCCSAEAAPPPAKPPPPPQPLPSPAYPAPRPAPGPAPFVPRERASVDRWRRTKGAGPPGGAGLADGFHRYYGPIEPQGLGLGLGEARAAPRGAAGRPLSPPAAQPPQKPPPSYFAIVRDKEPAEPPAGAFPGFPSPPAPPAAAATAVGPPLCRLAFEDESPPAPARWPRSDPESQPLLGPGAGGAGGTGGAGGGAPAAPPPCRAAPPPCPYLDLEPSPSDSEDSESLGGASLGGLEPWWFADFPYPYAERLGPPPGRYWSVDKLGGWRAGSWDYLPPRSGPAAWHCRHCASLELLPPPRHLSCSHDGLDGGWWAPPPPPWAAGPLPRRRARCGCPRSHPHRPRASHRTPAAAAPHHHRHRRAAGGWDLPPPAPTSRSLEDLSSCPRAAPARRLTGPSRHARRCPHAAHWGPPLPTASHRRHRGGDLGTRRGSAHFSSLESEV

[4] = biological target: Glutamate NMDA receptor; GRIN1/GRIN2B (Homo sapiens, UniProt Q05586+Q13224); assay: Negative allosteric modulation of human GluN1A/GluN2B receptor expressed in T-REX-CHO cells preincubated for 5 mins followed by glutamate and glycine addition and measured after 5 mins by FLIPR assay; format: cell-based
[5] = biological target: Glutamate receptor ionotropic, NMDA 2B (Rattus norvegicus, UniProt Q00960); assay: Displacement of 3-(3H) 1-(azetidin-1-yl)-2-(6- (4-fluoro-3-methyl-phenyl)pyrrolo-[…] pyridin-1yl)ethanone from GluN2B receptor in rat cortical membrane assessed as inhibition constant incubated for 2 hrs under shaking condition by liquid scintillator counter analysis; format: cell membranes, Cortex
Sequence of Glutamate receptor ionotropic, NMDA 2B (Q00960 whole entry): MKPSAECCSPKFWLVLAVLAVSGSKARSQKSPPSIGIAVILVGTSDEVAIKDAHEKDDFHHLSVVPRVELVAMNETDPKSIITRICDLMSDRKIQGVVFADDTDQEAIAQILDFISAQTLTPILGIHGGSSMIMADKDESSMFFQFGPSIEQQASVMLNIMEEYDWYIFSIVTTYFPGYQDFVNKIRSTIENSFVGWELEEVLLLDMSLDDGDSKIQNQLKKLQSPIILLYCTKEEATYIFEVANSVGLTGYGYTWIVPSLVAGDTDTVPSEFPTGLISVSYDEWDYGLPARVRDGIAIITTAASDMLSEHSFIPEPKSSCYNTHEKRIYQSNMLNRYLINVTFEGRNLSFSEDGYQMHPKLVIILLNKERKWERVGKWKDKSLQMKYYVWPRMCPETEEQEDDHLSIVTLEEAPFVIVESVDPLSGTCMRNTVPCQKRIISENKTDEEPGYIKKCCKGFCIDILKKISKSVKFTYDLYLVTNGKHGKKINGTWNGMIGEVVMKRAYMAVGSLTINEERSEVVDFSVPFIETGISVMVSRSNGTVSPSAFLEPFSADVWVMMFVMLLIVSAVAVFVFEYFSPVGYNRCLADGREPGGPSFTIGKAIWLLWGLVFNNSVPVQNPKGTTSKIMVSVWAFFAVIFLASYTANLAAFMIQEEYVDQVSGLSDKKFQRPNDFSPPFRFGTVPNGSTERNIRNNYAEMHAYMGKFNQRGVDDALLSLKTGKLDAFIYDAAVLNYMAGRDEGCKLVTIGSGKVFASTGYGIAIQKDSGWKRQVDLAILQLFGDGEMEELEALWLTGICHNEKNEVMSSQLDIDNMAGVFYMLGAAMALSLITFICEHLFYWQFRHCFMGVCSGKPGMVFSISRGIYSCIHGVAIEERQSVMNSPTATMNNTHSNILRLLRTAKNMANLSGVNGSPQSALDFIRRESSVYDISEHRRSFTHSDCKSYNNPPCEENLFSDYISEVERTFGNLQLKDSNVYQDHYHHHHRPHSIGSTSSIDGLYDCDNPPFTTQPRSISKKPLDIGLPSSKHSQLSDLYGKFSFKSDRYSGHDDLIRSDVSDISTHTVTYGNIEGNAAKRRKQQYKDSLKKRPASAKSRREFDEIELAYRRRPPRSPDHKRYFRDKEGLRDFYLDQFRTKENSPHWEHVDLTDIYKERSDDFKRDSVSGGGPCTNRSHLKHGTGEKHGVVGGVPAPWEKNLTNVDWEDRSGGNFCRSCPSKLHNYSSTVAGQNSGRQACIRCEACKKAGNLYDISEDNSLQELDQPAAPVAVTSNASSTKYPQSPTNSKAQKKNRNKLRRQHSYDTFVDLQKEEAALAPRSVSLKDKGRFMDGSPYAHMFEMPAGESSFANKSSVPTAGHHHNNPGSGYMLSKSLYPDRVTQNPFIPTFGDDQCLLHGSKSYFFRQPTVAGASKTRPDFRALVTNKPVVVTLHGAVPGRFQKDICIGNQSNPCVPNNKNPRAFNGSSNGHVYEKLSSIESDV

[6] = biological target: Voltage-gated inwardly rectifying potassium channel KCNH2 (Homo sapiens, UniProt Q12809); assay: Displacement of [3H]dofetilide from human ERG expressed in HEK293 cells; format: toxicity, cell-based
[7] = test system: MDR1 (P-gp); assay: Efflux ratio of apparent permeability from basolateral to apical side over apical to basolateral side in MDCK-MDR1 cells at 5 uM incubated for 60 mins by LC-MS/MS analysis; format: ADME, cell-based, Canis lupus familiaris; conditions: dog
[8] = biological target: T1, Cytochrome P450 1A2 (Homo sapiens, UniProt P05177); assay: Inhibition of CYP1A2 in human liver microsomes incubated for 10 mins by LC-MS/MS analysis; format: ADME, Microsome
T1 sequence (P05177 whole entry): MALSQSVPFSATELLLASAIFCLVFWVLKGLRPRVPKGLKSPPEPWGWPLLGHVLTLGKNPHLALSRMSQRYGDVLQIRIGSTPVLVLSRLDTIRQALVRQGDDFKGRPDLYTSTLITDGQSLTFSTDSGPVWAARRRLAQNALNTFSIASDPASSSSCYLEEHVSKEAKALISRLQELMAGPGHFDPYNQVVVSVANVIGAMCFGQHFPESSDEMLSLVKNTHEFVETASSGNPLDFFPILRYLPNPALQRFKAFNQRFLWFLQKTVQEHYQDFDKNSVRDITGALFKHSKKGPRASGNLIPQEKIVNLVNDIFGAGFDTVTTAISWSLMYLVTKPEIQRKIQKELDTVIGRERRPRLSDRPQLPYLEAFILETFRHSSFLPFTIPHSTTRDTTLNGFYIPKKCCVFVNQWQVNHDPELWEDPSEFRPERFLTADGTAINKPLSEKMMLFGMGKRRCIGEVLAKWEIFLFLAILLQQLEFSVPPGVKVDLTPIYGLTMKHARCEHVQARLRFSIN

[9] = biological target: Cytochrome P450 2C19 (Homo sapiens, UniProt P33261); assay: Inhibition of CYP2C19 in human liver microsomes incubated for 10 mins by LC-MS/MS analysis; format: ADME, Microsome
[10] = biological target: T2, Cytochrome P450 2C8 (Homo sapiens, UniProt P10632); assay: Inhibition of CYP2C8 in human liver microsomes incubated for 10 mins by LC-MS/MS analysis; format: ADME, Microsome
T2 sequence (P10632 whole entry): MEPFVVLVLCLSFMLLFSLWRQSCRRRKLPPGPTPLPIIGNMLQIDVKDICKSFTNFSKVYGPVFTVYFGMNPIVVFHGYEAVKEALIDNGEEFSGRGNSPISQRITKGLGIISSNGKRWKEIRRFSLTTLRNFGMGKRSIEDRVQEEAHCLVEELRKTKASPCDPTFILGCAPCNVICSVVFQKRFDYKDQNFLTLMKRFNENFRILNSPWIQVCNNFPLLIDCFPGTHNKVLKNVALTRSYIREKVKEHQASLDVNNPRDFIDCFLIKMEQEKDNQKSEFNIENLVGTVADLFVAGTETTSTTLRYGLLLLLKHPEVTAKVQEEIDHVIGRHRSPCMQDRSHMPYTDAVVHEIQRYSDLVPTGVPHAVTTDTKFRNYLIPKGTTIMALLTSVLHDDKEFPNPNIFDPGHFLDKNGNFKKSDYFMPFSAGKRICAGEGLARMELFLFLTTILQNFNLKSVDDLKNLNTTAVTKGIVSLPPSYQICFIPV

[11] = biological target: Cytochrome P450 2C9 (Homo sapiens, UniProt P11712); assay: Inhibition of CYP2C9 in human liver microsomes incubated for 10 mins by LC-MS/MS analysis; format: ADME, Microsome
[12] = biological target: Cytochrome P450 2D6 (Homo sapiens, UniProt P10635); assay: Inhibition of CYP2D6 in human liver microsomes incubated for 10 mins by LC-MS/MS analysis; format: ADME, Microsome
Sequence of Cytochrome P450 2D6 (P10635 whole entry): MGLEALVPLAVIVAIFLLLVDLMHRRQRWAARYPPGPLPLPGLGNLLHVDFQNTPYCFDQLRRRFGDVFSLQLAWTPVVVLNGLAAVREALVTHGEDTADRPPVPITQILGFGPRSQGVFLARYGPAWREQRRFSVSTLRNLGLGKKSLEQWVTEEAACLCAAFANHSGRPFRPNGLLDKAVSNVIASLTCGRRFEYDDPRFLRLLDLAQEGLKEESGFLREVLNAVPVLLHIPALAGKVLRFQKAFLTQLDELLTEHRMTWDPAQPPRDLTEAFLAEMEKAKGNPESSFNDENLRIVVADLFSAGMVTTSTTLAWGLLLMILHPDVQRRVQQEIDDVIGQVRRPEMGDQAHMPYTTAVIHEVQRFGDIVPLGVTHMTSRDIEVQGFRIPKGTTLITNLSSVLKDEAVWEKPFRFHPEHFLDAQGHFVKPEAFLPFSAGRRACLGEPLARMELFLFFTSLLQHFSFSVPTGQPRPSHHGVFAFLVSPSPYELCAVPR

[13] = Volume of distribution at steady state in Sprague-Dawley rat at 5 mg/kg, po or 1 mg/kg, iv measured for 24 hrs by LC-MS/MS analysis; format: ADME, organism-based; conditions: in vivo
[14] = Cmax in Sprague-Dawley rat at 5 mg/kg, po measured for 24 hrs by LC-MS/MS analysis; format: ADME, organism-based; set-up: time 24 hrs, dose 5 mg/kg, route po; conditions: in vivo
[15] = Oral bioavailability in Sprague-Dawley rat at 5 mg/kg measured for 24 hrs by LC-MS/MS analysis; format: ADME, organism-based; conditions: in vivo
[16] = Plasma protein binding in Sprague-Dawley rat assessed as free fraction; format: ADME, cell-free
[17] = Drug concentration in Sprague-Dawley rat brain assessed as free fraction; format: ADME, tissue-based
[18] = test system: Brain; assay: Ex vivo receptor occupancy at GluN2B receptor in Sprague-Dawley rat brain at 10 mg/kg, po measured after 0.25 hrs by 3 [3H] 1-(azetidin- 1-yl-2[6-(4-fluoro-3-methyl-pheny)pyrrolo[3,2-b]pyridin-1-yl]ethanon based autoradiography relative to control; format: functional
[19] = test system: Brain; assay: Ex vivo receptor occupancy at GluN2B receptor in Sprague-Dawley rat brain at 10 mg/kg, po measured after 0.5 hrs by 3 [3H] 1-(azetidin- 1-yl-2[6-(4-fluoro-3-methyl-pheny)pyrrolo[3,2-b]pyridin-1-yl]ethanon based autoradiography relative to control; format: functional
[20] = test system: Brain; assay: Ex vivo receptor occupancy at GluN2B receptor in Sprague-Dawley rat brain at 10 mg/kg, po measured after 2 hrs by 3 [3H] 1-(azetidin- 1-yl-2[6-(4-fluoro-3-methyl-pheny)pyrrolo[3,2-b]pyridin-1-yl]ethanon based autoradiography relative to control; format: functional
[21] = Drug concentration in Sprague-Dawley rat brain at 10 mg/kg, po measured after 0.25 hrs; format: ADME, organism-based; conditions: read-out: Ct
[22] = Drug concentration in Sprague-Dawley rat brain at 10 mg/kg, po measured after 0.5 hrs; format: ADME, organism-based; conditions: read-out: Ct
[23] = Drug concentration in Sprague-Dawley rat brain at 10 mg/kg, po measured after 2 hrs; format: ADME, organism-based; conditions: read-out: Ct
[24] = Drug concentration in Sprague-Dawley rat plasma at 10 mg/kg, po measured after 0.25 hrs; format: ADME, organism-based
[25] = Drug concentration in Sprague-Dawley rat plasma at 10 mg/kg, po measured after 0.5 hrs; format: ADME, organism-based
[26] = Drug concentration in Sprague-Dawley rat plasma at 10 mg/kg, po measured after 2 hrs; format: ADME, organism-based
[27] = Unbound brain to plasma concentration ratio in Sprague-Dawley rat at 10 mg/kg, po measured after 0.25 hrs; format: ADME, organism-based; conditions: brain and plasma, read-out: K(p,uu,brain)
[28] = Unbound brain to plasma concentration ratio in Sprague-Dawley rat at 10 mg/kg, po measured after 0.5 hrs; format: ADME, organism-based; conditions: brain and plasma, read-out: K(p,uu,brain)
[29] = Unbound brain to plasma concentration ratio in Sprague-Dawley rat at 10 mg/kg, po measured after 2 hrs; format: ADME, organism-based; conditions: brain and plasma, read-out: K(p,uu,brain)
[30] = test system: Hippocampus; assay: Ex vivo receptor occupancy at GluN2B receptor in Sprague-Dawley rat brain hippocampus at 0.01 to 3 mg/kg, po measured after 2 hrs by 3 [3H] 1-(azetidin- 1-yl-2[6-(4-fluoro-3-methyl-pheny)pyrrolo[3,2-b]pyridin-1-yl]ethanon based autoradiography relative to control; format: functional; conditions: dose 0.01-3 mg/kg
[31] = Drug metabolism in rat liver microsomes at 0.014 to 0.37 uM incubated for 60 mins; format: ADME, Microsome; conditions: 1 h, dose 0.014-0.37 µM
[32] = Drug metabolism in human liver microsomes assessed as O-dearylation mediated (1-(4-chloro-3-(difluoromethoxy)phenyl)-1H-1,2,3-triazol-4-yl)methanol metabolite formation at 0.1 uM in presence of NADPH; format: ADME, Microsome
[33] = Drug metabolism in rat hepatocytes at 0.01 to 0.1 uM incubated for 4 hrs; format: ADME, cell-based, Hepatocyte; conditions: dose 0.01-0.1 µM
[34] = Drug metabolism in human liver microsomes assessed as O-dearylation mediated 1-(4-chloro-3-(difluoromethoxy)phenyl)-1H-1,2,3-triazole-4-carboxylic acid metabolite formation at 0.1 uM in presence of NADPH; format: ADME, Microsome

Sequence of Glutamate receptor ionotropic, NMDA 2A (Q12879 whole entry, one chain of several): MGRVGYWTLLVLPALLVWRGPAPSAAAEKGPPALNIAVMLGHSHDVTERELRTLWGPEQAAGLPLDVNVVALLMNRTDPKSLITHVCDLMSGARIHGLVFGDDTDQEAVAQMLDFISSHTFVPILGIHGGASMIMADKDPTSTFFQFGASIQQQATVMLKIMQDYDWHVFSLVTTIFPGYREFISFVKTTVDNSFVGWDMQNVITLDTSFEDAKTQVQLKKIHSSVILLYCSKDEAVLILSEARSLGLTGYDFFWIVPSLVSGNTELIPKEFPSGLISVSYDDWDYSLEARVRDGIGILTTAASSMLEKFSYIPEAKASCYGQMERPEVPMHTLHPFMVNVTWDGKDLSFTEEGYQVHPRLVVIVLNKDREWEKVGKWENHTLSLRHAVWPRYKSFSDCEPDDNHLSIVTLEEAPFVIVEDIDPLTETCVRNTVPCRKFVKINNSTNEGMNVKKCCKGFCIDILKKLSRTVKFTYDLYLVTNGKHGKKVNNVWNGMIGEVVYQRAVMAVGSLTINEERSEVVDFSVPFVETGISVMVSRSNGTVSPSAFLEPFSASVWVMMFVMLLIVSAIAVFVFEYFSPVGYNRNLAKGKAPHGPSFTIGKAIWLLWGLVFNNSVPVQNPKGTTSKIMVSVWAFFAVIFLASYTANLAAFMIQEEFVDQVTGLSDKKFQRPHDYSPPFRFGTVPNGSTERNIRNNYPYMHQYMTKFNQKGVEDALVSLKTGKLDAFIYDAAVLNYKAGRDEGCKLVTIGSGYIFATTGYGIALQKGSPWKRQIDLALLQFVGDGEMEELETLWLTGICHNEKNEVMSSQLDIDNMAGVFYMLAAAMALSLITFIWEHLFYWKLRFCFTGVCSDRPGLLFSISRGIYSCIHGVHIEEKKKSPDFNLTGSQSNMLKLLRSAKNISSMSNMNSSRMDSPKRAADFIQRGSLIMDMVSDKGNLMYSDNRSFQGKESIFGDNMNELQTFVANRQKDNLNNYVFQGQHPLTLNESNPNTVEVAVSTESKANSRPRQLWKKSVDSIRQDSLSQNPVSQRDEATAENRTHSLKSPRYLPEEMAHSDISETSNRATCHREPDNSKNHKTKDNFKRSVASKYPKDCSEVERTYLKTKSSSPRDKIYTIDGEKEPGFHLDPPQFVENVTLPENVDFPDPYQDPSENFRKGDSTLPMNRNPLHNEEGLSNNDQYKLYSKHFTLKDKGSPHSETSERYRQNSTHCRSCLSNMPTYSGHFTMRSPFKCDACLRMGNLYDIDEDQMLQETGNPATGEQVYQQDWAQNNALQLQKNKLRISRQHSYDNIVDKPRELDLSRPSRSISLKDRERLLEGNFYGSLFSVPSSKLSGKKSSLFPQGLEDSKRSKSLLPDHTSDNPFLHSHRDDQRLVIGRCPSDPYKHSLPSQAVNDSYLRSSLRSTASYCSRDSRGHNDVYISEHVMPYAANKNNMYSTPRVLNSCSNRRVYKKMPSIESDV

IC50 [1]: > 10 µM | IC50 [2]: > 10 µM | IC50 [3]: > 10 µM | IC50 [4]: 0.011 µM | Ki [5]: 0.094 µM | efflux ratio at 1 h, 5 µM [7]: 1 | IC50 [8]: > 10 µM | IC50 [9]: > 10 µM | IC50 [10]: > 10 µM | IC50 [11]: > 10 µM | IC50 [12]: > 10 µM | Vdss [13]: 0.51 L/kg | Cmax [14]: 808 ng/mL | bioavailability [15]: 78% | fraction unbound [16]: 0.024 | fraction unbound [17]: 0.051 | concentration at 0.25 h [21]: 1290 ng/g | concentration at 0.5 h [22]: 1920 ng/g | concentration at 2 h [23]: 3010 ng/g | concentration at 0.25 h [24]: 3040 ng/mL | concentration at 0.5 h [25]: 5120 ng/mL | concentration at 2 h [26]: 8650 ng/mL | Kp uu at 0.25 h [27]: 0.91 | Kp uu at 0.5 h [28]: 0.78 | Kp uu at 2 h [29]: 0.72 | Drug metabolism [31]: Metabolite_Detected | Drug metabolism [32]: Metabolite_Detected | Drug metabolism [33]: Metabolite_Detected | Drug metabolism [34]: Metabolite_Detected
Compound: FC(F)Oc1cc(-n2cc(COc3ncccn3)nn2)ccc1Cl
IC50 [6]: > 10 µM | Occ [18]: 71% | Occ [19]: 92% | Occ [20]: 85% | Occ [30]: <10%
